For one experiment, the system named is MDA cells. Put plainly: Autophagy in MDA cells (LC3 immuno-staining). Particulars: 2 μM. The experiment is classed as cell-based, human. As for the experimental part:
(§1) Cells were fixed with 4% paraformaldehyde (30 min) and incubated with Permeabilization Solution containing 0.1% Triton X-100 (Sigma-Aldrich, Israel) in PBS at room temperature for 1 h. Nonspecific binding was blocked with PBS containing 10% fetal bovine serum for 1 h at room temperature. Cells were incubated with specific antibodies diluted 1:100 overnight at 4° C. Cells were washed (5 min) in PBS containing 0.2% Tween-20 (Sigma-Aldrich, Israel) to remove non-specific binding. Bound primary antibodies were detected by Alexa Fluor® 488 goat anti-mouse IgG antibody or Alexa Fluor® 594 goat anti-rabbit IgG antibody (Molecular Probes, Invitrogen, U.K.). Nuclei were visualized by incubation with Hoechst 33342 solution for 10 min (1:500). Nonspecific staining, as determined by binding to the secondary antibody only, was negligible. The immunostained slides were examined under the fluorescence microscope AxioimagerZ1 (Zeiss, Germany) or confocal fluorescence microscope (Olympus-FV1000).

A further experiment has as its system Hfb. Put plainly: Mitochondrial membrane potential (TMRE) in normal human cells. The experiment is classed as cell-based. The protocol: For microscopic and ELISA based analyses of cells MMP, Tetra-Methyl-Rhodamine-Ethyl ester (TMRE) incorporation assay was carried out according to the manufacturer's instructions (Abcam, USA).
The subject of experiment [1] is CC cells. Put plainly: Autophagy in CC cells (TEM, LC3 immuno-staining, WB). In kind it is cell-based, human. The protocol: (§2) WB analyses were carried out as previously described before. In brief, cells were lysed in RIPA buffer mixed with protease inhibitors and separated on SDS-PAGE gel, transferred to PVDF membrane treated with 5% skim milk to exclude non-specific background and incubated with a primary antibody over-night. The membrane was incubated for 1 h with a secondary antibody conjugated to Horseradish Peroxidase (HRP). The protein-antibody complex was visualized using the SuperSignal West Pico Chemiluminescent Substrate (Thermo scientific, USA).
as §1
Cells were grown in MEM or DMEM, washed twice with PBS and fixed for 5 minutes in Karnovsky fixative (2.5% glutaraldehyde, 2.5% paraformaldehyde in cacodylate buffer pH 7.4) on the tissue culture plate. Cells were then harvested, and transferred to 1.5 ml tube for further 1 h fixation at room temperature. The cells were then stored O.N at 4C° after which the samples were washed in 0.1 M cacodylate buffer and post-fixed with 1% OsO4 in 0.1 M sodium cacodylate buffer (Sigma-Aldrich, Israel) for 1 h. […]

The subject of experiment [2] is CC cells. As to the kind of experiment: Apoptotic markers in treated CC cells (WB, ICC). The experiment is classed as cell-based, human. As for the experimental part: as §2
as §1, with “Cells were washed (5 min) in PBS containing 0.2% Tween-20 (Sigma-Aldrich, Israel) to remove non-specific binding.” left out, “Nuclei were visualized by incubation with Hoechst 33342 solution for 10 min (1:500).” left out

In experiment [3] the test system is su.86.86 (pancreatic cancer cells derived from metastatic site-liver). As to the kind of experiment: Cytotoxicity dose response in su.86.86 cells. The experiment is classed as cell-based, human. Particulars: 24 h, 48 h, 72 h. As for the experimental part: Cell lines (HCT116, ht29, Rko, Hep3B, SW48, SW620, MDA-MB-231, PANC-1, su.86.86, Hfb) were obtained from the American Type Culture Collection (ATCC). Cell type authentication was carried out by microscope and DNA profiles using short tandem repeat analysis. Cells were grown in Minimum Essential Medium (MEM) containing 10% heat-inactivated Fetal Bovine Serum (FBS) or in Dulbecco's Modified Eagle's Medium (DMEM) containing 10% FBS, where specified, at 37° C. with 5% CO2. In general, the in-vitro experiments were carried out with 2. μM 0260 added into the growth medium. Dose response experiments included increasing 0260 concentrations. Cell death levels were determined using the MultiTox-Fluor Multiplex Cytotoxicity Assay (G9201, Promega, USA). In brief, 10,000 cells were seeded in black bottom 96 wells plate and were allowed to attach to the plate bottom for 16 h before the administration of various 0260 concentration in each well. Cell death levels were determined according to the manufacturer's protocol.
Cells death level was determined using the MultiTox-Fluor Multiplex Cytotoxicity Assay (G9201, Promega, USA) according to the manufacturer's protocol.

Another experiment relates to mice sperm cells. Put plainly: Sperm cell motility assay (CASA). The experiment is classed as cell-based. Particulars: 2 μM. The protocol:
For isolation of spermatogenic cells, mice testes were removed from out-bred (ICR) mice and digested in Isolation Medium (DMEM with 2 mM glutamine, 1.5 mM sodium pyruvate, 10% fetal calf serum, 25 μg/ml ampicillin and 1× non-essential amino acids) with added 2 mg/ml collagenase (Sigma-Aldrich) for 5 min at 37° C., and washed twice. Extracellular DNA and proteins were removed with 1 unit/ml DNAse and 0.3 ml 0.5% trypsin at 37° C. for 5 min. Cells were filtered through a nylon mesh with 50 μm pores and incubated in Isolation Medium with 0260 or control for 24 h, and examined under the microscope. Mouse mature caudal spermatozoa were obtained by dissecting the cauda epididymis of male ICR mice and puncturing them in a dish containing 3 ml PBS to enable sperm release out of the epididymal tissue. The sperm suspension was filtered through a nylon mesh with 50 μm pores, centrifuged at 1000×g for 5 min and re-suspended in a buffer compatible with the experimental procedure.
Sperm cell motility was evaluated using the Computer-Aided Sperm Analysis (CASA). Samples (5 μl) were placed in standard count four chamber slide (Leja, Nieuw-Vennet, Netherlands) and analyzed by CASA device with IVOS software (version 12, Hamilton-Thorne Biosciences), acquiring up to ten sequels, 10 s long, for each sample, using parameters identifying mouse sperm motility. The proportion of hyper-activated ([…]) spermatozoa in each sample was determined using the SORT function of the CASA instrument. HAM was defined by curvilinear velocity (VCL)>90 μm/s, linearity (LIN) b20% and an amplitude of lateral head (ALH)>7 μm.

Structures can show the parent of a compound that is named as a salt.

On to `CC(C)c1ccc(-c2cn3nc(N4CCC(CN5CCN(C)CC5)CC4)sc3n2)cc1` [compound 0260, tartarate salt of 6-(4-isopropyl-phenyl)-2-{4-[(4-methyl-piperazin-1-yl)methyl]piperidin-1-yl}-imidazo [2,1-b][1,3,4]thiadiazole], for which the “autophagy (LC3 immuno-staining)” value in the experiment on MDA cells is “induction of autophagy was also observed”. For the same compound, the “Mitochondrial Membrane Potential (MMP) depolarization” value in the experiment on Hfb is recorded as “absent”. For the same compound, the autophagy / autophagosomes result in the experiment with CC cells [1] (TEM and LC3 immuno-staining) was “autophagy was induced and autophagosomes accumulated”. For the same compound, the “level of LC3II” value in the experiment with CC cells [1] (WB) is “relative increase”. Moreover, the “apoptotic markers (cleaved caspase 3, cleaved PARP-1, AIF translocation)” value in the experiment on CC cells [2] is given as “not observed”. Further, the “sensitivity of Su.86.86 relative to PANC-1 cells” value in experiment [3] is reported as “more sensitive”. Further, in the experiment on mice sperm cells (5 min), the “percentage of sperm cells exhibiting progressive motility” value is reported as “significantly decreased”. For the same compound, in the experiment on mice sperm cells (30 min), the progressive motility result is “practically reduced to zero” and the total motility result is listed as “practically reduced to zero”.

These data come from patent US20180071280A1, “MODULATORS OF CELL DEATH PROCESSES” (URIFER LTD., priority 2015, published 2018).
